Drawing on PMC2796783, “Pharmacological Characterization of Inositol 1,4,5-tris Phosphate Receptors in Human Platelet Membranes” (Cardiovascular Psychiatry and Neurology, 2009), this text covers IC50 and Kd for four compounds.

Assay [1] has as its system T1, Ins(1,4,5)P3 receptors in human platelet membranes.
T1 construct: gene ITPR1; native receptor in crude platelet membranes of healthy human subjects; not purified; tetrameric channel
As to the kind of experiment: displacement of […] [3H]Ins([…])P3, filtration, log probit analysis. The class given is binding. Particulars: 20 nM [3H]Ins(1,4,5)P3, 50 mM Tris-HCl pH 8.5, 1 mM EDTA, 4 °C, 10 min.

Assay [2] has the same test system. As to the kind of experiment: radioligand saturation binding, filtration, Scatchard (EBDA). The conditions noted are these: 50 mM Tris-HCl pH 8.5, 1 mM EDTA, 1 mM 2-mercaptoethanol, 4 °C, 10 min; labelled compound; crude platelet membranes; single site.

By IC50 is commonly meant the concentration that gives 50% inhibition. A low value points to greater potency in that assay. A word on the Kd: it is a measure of binding affinity in units of concentration.

The structures appear in SMILES notation.

For `O=P(O)(O)O[C@H]1[C@@H](O)[C@H](O)[C@@H](OP(=O)(O)O)[C@H](OP(=O)(O)O)[C@H]1O` [D-Ins(2,4,5)P3], the IC50 in assay [1] is 1900 ± 680 nM.
Same read-out and setting: the result for `O=P(O)(O)O[C@@H]1[C@@H](O)[C@@H](O)[C@@H](OP(=O)(O)OC[C@H](O)CO)[C@H](O)[C@H]1OP(=O)(O)O` [GPIP2] reads 4970 ± 1830 nM; that for `O=P(O)(O)O[C@@H]1[C@@H](O)[C@H](OP(=O)(O)O)[C@@H](OP(=O)(O)O)[C@H](O)[C@@H]1O` [L-Ins(1,4,5)P3], 354000 ± 37000 nM.
With `O=P(O)(O)O[C@@H]1[C@H](O)[C@H](O)[C@@H](OP(=O)(O)O)[C@H](OP(=O)(O)O)[C@H]1O` [[^3H]Ins(1,4,5)P3], binding in assay [2] was characterised by a dissociation constant (Kd) of 22.1 ± 2.34 nM. Also, in assay [1] (error exceeds the value), the IC50 was determined as 300 ± 500 nM.
